# Test results: patent US20230047788A1, “COMPOSITIONS COMPRISING 5-CHOLESTEN-3, 25-DIOL, 3-SULFATE (25HC3S) OR PHARMACEUTICALLY ACCEPTABLE SALT THEREOF AND AT LEAST ONE CYCLIC OLIGOSACCHARIDE” (Virginia Commonwealth University, priority 2016, published 2023)
# Several values for one entry are separate records, joined by “and”; a condition that tells them apart may be missing. Identical values can stand only once.
# Experiments:
# [1] = Solubility of 25HC3S in water as function of HPbCD or SBECD concentration at room temperature; type: physicochemical; conditions: for 25HC3S Solubility / Molar of 25HC3S: room temperature
# Description: A total of six suspensions of 25HC3S sodium salt were prepared in water containing 0, 50, 100, 200, 250 and 400 mg/mL hydroxypropyl-β-cyclodextrin (HPbCD, hydroxypropyl betadex) or sulfobutyl ether β-cyclodextrin (SBECD, Captisol®). Both cyclodextrins are used in approved pharmaceutical products and are manufactured as Good Manufacturing Practice (GMP) excipients. Each suspension was agitated at room temperature, aliquots were centrifuged, and the supernatant solutions assayed for 25HC3S concentrations by a reverse phase HPLC method. The solubility data of 25HC3S as a function of HPbCD concentrations is in Table 1 and as a function of SBECD concentrations is in Table 2.
# [2] = tested on: LPS endotoxin shock model; assay: Survival in rodent model of LPS endotoxin shock; type: in vivo, C57BL/6J mice; conditions: LPS 5 mg/kg iv; 50 mg/kg 25HC3S ip 2 hours prior to LPS; six days after LPS; N=10
# Description: The subjects for the study were 20 male C57BL/6J mice (20-22 weeks of age, 27-35 g).
# A solution formulation of 25HC3S and its respective vehicle was used for the study. The vehicle was a solution of 4% (w/v) hydroxypropyl betadex, 10% (w/v) dextrose, with 10 mM sodium phosphate buffer in sterile water. Vehicle was stored at 2-8° C. storage and placed at room temperature for 30 minutes prior to dosing.
# 25HC3S sodium salt was pre-dissolved into the vehicle solution to result in a drug concentration of 5 mg/mL. The 25HC3S solution was ready-to-use at the start of dosing. It was also stored at 2-8° C. storage and placed at room temperature for 30 minutes prior to dosing the mice.
# 50 mg/kg of 25HC3S in vehicle or vehicle alone (N=10/group) were administered to mice once by intraperitoneal injection 2 hours prior to LPS delivery. A semi-lethal dose of LPS (5 mg/kg) was given by intravenous injection to the tail vein in order to induce an acute inflammatory response that mimics systemic sepsis-like conditions.
# Mice were monitored for survival for 6 days after 25HC3S and LPS treatments. Animal checks for mortality were performed twice daily during the 6 day observation period. Animals were examined for any altered clinical signs, including gross motor and behavioral activity, and observable changes in appearance. […]
# mice overdosed with APAP = assay: Mortality in mice overdosed with APAP (600 mg/kg); type: in vivo, C57BL/6J mice; conditions: APAP 600 mg/kg ip; 25 mg/kg 25HC3S iv 0.5 hours after APAP; 5 days after overdose
# Description: The ability of 25HC3S to treat symptoms of APAP overdose was examined. 12-week-old male C57BL/6J mice were fasted overnight and injected (intraperitoneally) with APAP: 600 mg/kg (high dose) for mortality studies or 350 mg/kg (low dose) for liver function and gene studies. Control mice received only vehicle (20% (v/v) a propylene glycol, 4% (w/v) cyclodextrin (powdered hydroxypropyl beta cyclodextrin in sterile 10% (w/v) glucose.
# A composition comprising 25 mg/kg of 25HC3S sodium salt in vehicle was administered intravenously to the experimental mice 0.5 hours after APAP administration. Mortality was monitored in the high dose mice. In the low dose mice, the liver function markers aspartate aminotransferase (AST), alanine aminotransferase (ALT), alkaline phosphatase (ALK) and lactate dehydrogenase (LDH), were measured in serum. Impacts on gene expression were determined by Quantitative Real-time PCR. Membrane potentials were measured using JC1 staining and flow cytometry.
smiles,measurement,setting,value
"C[C@H](CCCC(C)(C)O)[C@H]1CC[C@H]2[C@@H]3CC=C4C[C@@H](OS(=O)(=O)[O-])CC[C@]4(C)[C@H]3CC[C@]12C.[Na+] [25HC3S, 5-cholesten-3, 25-diol, 3-sulfate]",25HC3S Solubility,[1]; 50 mg/mL HPbCD in water,9.78 mg/mL
same,Molar of 25HC3S,[1]; 50 mg/mL HPbCD in water,0.01938 Molar
same,25HC3S Solubility,[1]; 50 mg/mL SBECD in water,6.03 mg/mL
same,Molar of 25HC3S,[1]; 50 mg/mL SBECD in water,0.01195 Molar
same,25HC3S Solubility,[1]; 100 mg/mL HPbCD in water,18.44 mg/mL
same,Molar of 25HC3S,[1]; 100 mg/mL HPbCD in water,0.03654 Molar
same,25HC3S Solubility,[1]; 100 mg/mL SBECD in water,9.86 mg/mL
same,Molar of 25HC3S,[1]; 100 mg/mL SBECD in water,0.01954 Molar
same,25HC3S Solubility,[1]; 200 mg/mL HPbCD in water,31.97 mg/mL
same,Molar of 25HC3S,[1]; 200 mg/mL HPbCD in water,0.06334 Molar
same,25HC3S Solubility,[1]; 200 mg/mL SBECD in water,21.24 mg/mL
same,Molar of 25HC3S,[1]; 200 mg/mL SBECD in water,0.04208 Molar
same,25HC3S Solubility,[1]; 250 mg/mL HPbCD in water,42.37 mg/mL
same,Molar of 25HC3S,[1]; 250 mg/mL HPbCD in water,0.08395 Molar
same,25HC3S Solubility,[1]; 400 mg/mL HPbCD in water,66 mg/mL and 65.18 mg/mL
same,Molar of 25HC3S,[1]; 400 mg/mL HPbCD in water,0.1291 Molar
same,25HC3S Solubility,[1]; 400 mg/mL SBECD in water,44.76 mg/mL
same,Molar of 25HC3S,[1]; 400 mg/mL SBECD in water,0.08869 Molar
same,relative amounts of HPbCD needed to solubilize 25HC3S (ratio),"[1]; mg/mL basis, water",6 to 1
same,25HC3S Solubility,"[1]; water, 0 mg/mL cyclodextrin",0.14 mg/mL
same,Molar of 25HC3S,"[1]; water, 0 mg/mL cyclodextrin",0.00028 Molar
same,mice that had died,[2],40%
same,mice that had died,mice overdosed with APAP,one
